Patent US20220400680A1, “USE OF ACYLCYANAMIDES OR SALTS THEREOF FOR REGULATING PLANT GROWTH” (Alzchem Trostberg GmbH, priority 2019, published 2022)

What was measured:
[1] = system: Table apple, type Boiken apple (C1); test: Greenhouse test, cut apple branches C1 dipped in test solution, bud development stage; type: in vivo, Malus domestica; set-up: key to Bud development stage, apple branches C1: Stage 0: Buds unchanged; Stage 1: Buds slightly swollen, first green tips visible; Stage 2: strongly swollen, green buds; Stage 3: Buds before breaking open, leaf or flower root already visible; Stage 4: Flower buds fully developed, but still closed, white petals already visible. In the case of the grapevine, stage 4 was the unfolding of the first leaves; Stage 5: Flowers fully open or, in the case of grapevine, unfolding of the flower roots (“Gescheine”) on the fully leafed sprouts
Protocol: Greenhouse tests were conducted using cut fruit tree branches placed in water jars and maintained under controlled conditions with temperature regulation at approximately 22° C. and natural lighting. C1: Table Apple, Type Boiken Apple Table apple: Malus domestica type Boiken first described in 1828 in Bremen after Deichvogt Boiken. Apple type for rough locations and for almost every soil suitable scattered fruit type, whereby heavy soils and not too warm locations are required. Tree growth initially strong, later medium. Older crowns become broadly spherical and are loosely branched. Flowering starting medium-late and long lasting, petals large with little pink. Yield starting late (October) and irregular; with long shelf life and pressure resistance. […] The test solutions were prepared directly, i.e. without intermediate preparation of a concentrate. For each of the test substances A-1 to A-13, an aqueous solution of 0.15 mol of the test substance and 0.15 g BreakThru® OE-446 was prepared and filled up to a total of 500 g with water. Of bis-cyanamides A-14 and A-15, 0.075 mol each was filled up to 500 g in an analogous manner. These test solutions (in combination with the above 4 species/types Cx) were given the test numbers Cx-A1 to Cx-A15. […] This was done with the following evaluation scale: • Stage 0: […] Flower buds fully developed, but still closed, white petals already visible. […] Flowers fully open or, in the case of grapevine, unfolding of the flower roots (“[…]”) on the fully leafed sprouts.

[2] = system: Table apple, type Zabergäu-Renette (C2); test: Greenhouse test, cut apple branches C2 dipped in test solution, bud development stage; type: in vivo, Malus domestica; set-up: key to Bud development stage, apple branches C2: Stage 0: Buds unchanged; Stage 1: Buds slightly swollen, first green tips visible; Stage 2: strongly swollen, green buds; Stage 3: Buds before breaking open, leaf or flower root already visible; Stage 4: Flower buds fully developed, but still closed, white petals already visible. In the case of the grapevine, stage 4 was the unfolding of the first leaves; Stage 5: Flowers fully open or, in the case of grapevine, unfolding of the flower roots (“Gescheine”) on the fully leafed sprouts; settings: for Dormancy-breaking effect according to the definition, apple C2: stage 4 reached or exceeded after 36 days vs negative control
Protocol: Greenhouse tests were conducted using cut fruit tree branches placed in water jars and maintained under controlled conditions with temperature regulation at approximately 22° C. and natural lighting. C2: Table Apple, Type […] Table apple: Malus domestica type […] first developed in 1885 as a chance seedling in Hausen a.d. Zaber/Baden-Württemberg and initially grown as 'Hausener Graue […]'. No defined storage type; requires heavy soils (loam). Tree growth initially strong with oblique upright leading branches, later medium with flat branches. Crown broad and flat-spherical with flat fruiting wood. Leaves large, broad oval and with clearly separated tip. Triploid type with late and long-lasting flowering. Yield starting early, medium high and somewhat alternate. […] The test solutions were prepared directly, i.e. without intermediate preparation of a concentrate. For each of the test substances A-1 to A-13, an aqueous solution of 0.15 mol of the test substance and 0.15 g BreakThru® OE-446 was prepared and filled up to a total of 500 g with water. Of bis-cyanamides A-14 and A-15, 0.075 mol each was filled up to 500 g in an analogous manner. These test solutions (in combination with the above 4 species/types Cx) were given the test numbers Cx-A1 to Cx-A15. […] This was done with the following evaluation scale: • Stage 0: […] Flower buds fully developed, but still closed, white petals already visible. […] Flowers fully open or, in the case of grapevine, unfolding of the flower roots (“[…]”) on the fully leafed sprouts.

[3] = system: Table cherry, type Burlat (C3); test: Greenhouse test, cut cherry branches C3 dipped in test solution, bud development stage; type: in vivo, Prunus avium; set-up: key to Bud development stage, cherry branches C3: Stage 0: Buds unchanged; Stage 1: Buds slightly swollen, first green tips visible; Stage 2: strongly swollen, green buds; Stage 3: Buds before breaking open, leaf or flower root already visible; Stage 4: Flower buds fully developed, but still closed, white petals already visible. In the case of the grapevine, stage 4 was the unfolding of the first leaves; Stage 5: Flowers fully open or, in the case of grapevine, unfolding of the flower roots (“Gescheine”) on the fully leafed sprouts
Protocol: Greenhouse tests were conducted using cut fruit tree branches placed in water jars and maintained under controlled conditions with temperature regulation at approximately 22° C. and natural lighting. C3: Table Cherry, Type Burlat Table cherry: Prunus avium type Bigarreau Burlat or […] is a strong-growing somewhat sparse growing sweet cherry tree with horizontal side sprouts. The type has been known since 1930 and is one of the most important types in commercial cultivation. […] Medium but regular yields identify the type as a secondary type for early and dry areas. […] The test solutions were prepared directly, i.e. without intermediate preparation of a concentrate. For each of the test substances A-1 to A-13, an aqueous solution of 0.15 mol of the test substance and 0.15 g BreakThru® OE-446 was prepared and filled up to a total of 500 g with water. Of bis-cyanamides A-14 and A-15, 0.075 mol each was filled up to 500 g in an analogous manner. These test solutions (in combination with the above 4 species/types Cx) were given the test numbers Cx-A1 to Cx-A15. […] This was done with the following evaluation scale: • Stage 0: […] Flower buds fully developed, but still closed, white petals already visible. […] Flowers fully open or, in the case of grapevine, unfolding of the flower roots (“[…]”) on the fully leafed sprouts.

[4] = system: Grape, type Pinot Noir (C4); test: Greenhouse test, cut wine sprouts C4 dipped in test solution, bud development stage; type: in vivo, Vitis vinifera subsp. vinifera; set-up: key to Bud development stage, wine sprouts C4: Stage 0: Buds unchanged; Stage 1: Buds slightly swollen, first green tips visible; Stage 2: strongly swollen, green buds; Stage 3: Buds before breaking open, leaf or flower root already visible; Stage 4: Flower buds fully developed, but still closed, white petals already visible. In the case of the grapevine, stage 4 was the unfolding of the first leaves; Stage 5: Flowers fully open or, in the case of grapevine, unfolding of the flower roots (“Gescheine”) on the fully leafed sprouts; settings: for Dormancy-breaking effect according to the definition, wine C4: stage 4 reached or exceeded after 36 days vs negative control
Protocol: Greenhouse tests were conducted using cut fruit tree branches placed in water jars and maintained under controlled conditions with temperature regulation at approximately 22° C. and natural lighting. C4: Grape, Type Pinot Noir Grape: Vitis vinifera subsp. vinifera type Pinot Noir is an important and high quality red wine type that has existed for possibly 2000 years. It is cultivated all over the world because the type produces high quality red wines and has sufficient winter frost resistance. The type requires early and good areas with deep, warm, medium-heavy and fertile soils with good water supply. Pinot Noir produces regular, medium-high to high yields. However, there are a large number of clones that differ in yield, berry size and looseness. […] The test solutions were prepared directly, i.e. without intermediate preparation of a concentrate. For each of the test substances A-1 to A-13, an aqueous solution of 0.15 mol of the test substance and 0.15 g BreakThru® OE-446 was prepared and filled up to a total of 500 g with water. Of bis-cyanamides A-14 and A-15, 0.075 mol each was filled up to 500 g in an analogous manner. These test solutions (in combination with the above 4 species/types Cx) were given the test numbers Cx-A1 to Cx-A15. […] This was done with the following evaluation scale: • Stage 0: […] Flower buds fully developed, but still closed, white petals already visible. […] Flowers fully open or, in the case of grapevine, unfolding of the flower roots (“[…]”) on the fully leafed sprouts.

[5] = T1 (14 d), 0.15 mol (A-14, A-15: 0.075 mol) per 500 g solution
[6] = stage 4 reached or exceeded after 27 days vs negative control

Row | SMILES | Bud development stage, apple branches C1 [1, 5] | Bud development stage, apple branches C1 ([1]; T2 (16 d)) | Bud development stage, apple branches C1 ([1]; T3 (21 d)) | Bud development stage, apple branches C1 ([1]; T4 (27 d)) | Bud development stage, apple branches C1 ([1]; T5 (36 d)) | Bud development stage, apple branches C1 ([1]; T6 (56 d)) | Bud development stage, apple branches C2 [2, 5] | Bud development stage, apple branches C2 ([2]; T2 (16 d)) | Bud development stage, apple branches C2 ([2]; T3 (21 d)) | Bud development stage, apple branches C2 ([2]; T4 (27 d)) | Bud development stage, apple branches C2 ([2]; T5 (36 d)) | Bud development stage, apple branches C2 ([2]; T6 (56 d)) | Bud development stage, cherry branches C3 [3, 5] | Bud development stage, cherry branches C3 ([3]; T2 (16 d)) | Bud development stage, cherry branches C3 ([3]; T3 (21 d)) | Bud development stage, cherry branches C3 ([3]; T4 (27 d)) | Bud development stage, cherry branches C3 ([3]; T5 (36 d)) | Bud development stage, cherry branches C3 ([3]; T6 (56 d)) | Bud development stage, wine sprouts C4 [4, 5] | Bud development stage, wine sprouts C4 ([4]; T2 (16 d)) | also measured
1 | N#CNC(=O)CCCCC(=O)NC#N.[Na].[Na] [Example A-15, Disodium-(5-(cyano-amidocarbonyl)-pentanoyl-cyanamide)] | 0 | 0 | 1 | 2 | 3 | 4 | 0 | 0 | 1 | 5 | 5 | 5 | 0 | 1 | 1 | 1 | 2 | 4 | 0 | 0 | Good to very good dormancy-breaking effect, apple C2 [2, 6]: good to very good dormancy-breaking effect; Dormancy-breaking effect according to the definition, apple C2 [2]: dormancy-breaking effect; Bud development stage, wine sprouts C4 ([4]; T3 (21 d)): 0; Bud development stage, wine sprouts C4 ([4]; T4 (27 d)): 1; Bud development stage, wine sprouts C4 ([4]; T5 (36 d)): 4; Bud development stage, wine sprouts C4 ([4]; T6 (56 d)): 5; Dormancy-breaking effect according to the definition, wine C4 [4]: dormancy-breaking effect
2 | N#CNC(=O)c1ccccc1.[Na] [Example A-4, Sodium benzoyl cyanamide] | 1 | 1 | 1 | 2 | 3 | 4 | 0 | 0 | 0 | 1 | 2 | 2 | 1 | 2 | 4 | 4 | 5 | 5 | 0 | 0 | Good to very good dormancy-breaking effect, cherry C3 ([3]; stage 4 reached or exceeded after 21 days vs negative control): good to very good dormancy-breaking effect; Dormancy-breaking effect according to the definition, cherry C3 [3, 6]: dormancy-breaking effect; Bud development stage, wine sprouts C4 ([4]; T3 (21 d)): 0; Bud development stage, wine sprouts C4 ([4]; T4 (27 d)): 3; Bud development stage, wine sprouts C4 ([4]; T5 (36 d)): 5; Bud development stage, wine sprouts C4 ([4]; T6 (56 d)): 5; Dormancy-breaking effect according to the definition, wine C4 [4]: dormancy-breaking effect
3 | COC(=O)NC#N.[Na] [Example A-3, Sodium methoxy carbonyl cyanamide] | 1 | 1 | 2 | 3 | 4 | 5 | 0 | 0 | 0 | 2 | 4 | 4 | 0 | 0 | 0 | 1 | 3 | 5 | 0 | 0 | Dormancy-breaking effect according to the definition, apple C1 ([1]; stage 4 reached or exceeded after 36 days vs negative control): dormancy-breaking effect; Dormancy-breaking effect according to the definition, apple C2 [2]: dormancy-breaking effect; Bud development stage, wine sprouts C4 ([4]; T3 (21 d)): 0; Bud development stage, wine sprouts C4 ([4]; T4 (27 d)): 1; Bud development stage, wine sprouts C4 ([4]; T5 (36 d)): 5; Bud development stage, wine sprouts C4 ([4]; T6 (56 d)): 5; Dormancy-breaking effect according to the definition, wine C4 [4]: dormancy-breaking effect
